From BindingDB's records for doi:10.1021/jm051030l (University of Pittsburgh, 2006)
Counter-ions that a name gives are not always drawn.

Biological target: Cytoplasmic dynein 1 heavy chain 1 (Rattus norvegicus, UniProt P38650)
Assay: Inhibition of MT-stimulated ATPase activity of rat cytoplasmic dynein heavy chain motor domain

Chain of Cytoplasmic dynein 1 heavy chain 1 (P38650 whole entry, the tested form may be a part): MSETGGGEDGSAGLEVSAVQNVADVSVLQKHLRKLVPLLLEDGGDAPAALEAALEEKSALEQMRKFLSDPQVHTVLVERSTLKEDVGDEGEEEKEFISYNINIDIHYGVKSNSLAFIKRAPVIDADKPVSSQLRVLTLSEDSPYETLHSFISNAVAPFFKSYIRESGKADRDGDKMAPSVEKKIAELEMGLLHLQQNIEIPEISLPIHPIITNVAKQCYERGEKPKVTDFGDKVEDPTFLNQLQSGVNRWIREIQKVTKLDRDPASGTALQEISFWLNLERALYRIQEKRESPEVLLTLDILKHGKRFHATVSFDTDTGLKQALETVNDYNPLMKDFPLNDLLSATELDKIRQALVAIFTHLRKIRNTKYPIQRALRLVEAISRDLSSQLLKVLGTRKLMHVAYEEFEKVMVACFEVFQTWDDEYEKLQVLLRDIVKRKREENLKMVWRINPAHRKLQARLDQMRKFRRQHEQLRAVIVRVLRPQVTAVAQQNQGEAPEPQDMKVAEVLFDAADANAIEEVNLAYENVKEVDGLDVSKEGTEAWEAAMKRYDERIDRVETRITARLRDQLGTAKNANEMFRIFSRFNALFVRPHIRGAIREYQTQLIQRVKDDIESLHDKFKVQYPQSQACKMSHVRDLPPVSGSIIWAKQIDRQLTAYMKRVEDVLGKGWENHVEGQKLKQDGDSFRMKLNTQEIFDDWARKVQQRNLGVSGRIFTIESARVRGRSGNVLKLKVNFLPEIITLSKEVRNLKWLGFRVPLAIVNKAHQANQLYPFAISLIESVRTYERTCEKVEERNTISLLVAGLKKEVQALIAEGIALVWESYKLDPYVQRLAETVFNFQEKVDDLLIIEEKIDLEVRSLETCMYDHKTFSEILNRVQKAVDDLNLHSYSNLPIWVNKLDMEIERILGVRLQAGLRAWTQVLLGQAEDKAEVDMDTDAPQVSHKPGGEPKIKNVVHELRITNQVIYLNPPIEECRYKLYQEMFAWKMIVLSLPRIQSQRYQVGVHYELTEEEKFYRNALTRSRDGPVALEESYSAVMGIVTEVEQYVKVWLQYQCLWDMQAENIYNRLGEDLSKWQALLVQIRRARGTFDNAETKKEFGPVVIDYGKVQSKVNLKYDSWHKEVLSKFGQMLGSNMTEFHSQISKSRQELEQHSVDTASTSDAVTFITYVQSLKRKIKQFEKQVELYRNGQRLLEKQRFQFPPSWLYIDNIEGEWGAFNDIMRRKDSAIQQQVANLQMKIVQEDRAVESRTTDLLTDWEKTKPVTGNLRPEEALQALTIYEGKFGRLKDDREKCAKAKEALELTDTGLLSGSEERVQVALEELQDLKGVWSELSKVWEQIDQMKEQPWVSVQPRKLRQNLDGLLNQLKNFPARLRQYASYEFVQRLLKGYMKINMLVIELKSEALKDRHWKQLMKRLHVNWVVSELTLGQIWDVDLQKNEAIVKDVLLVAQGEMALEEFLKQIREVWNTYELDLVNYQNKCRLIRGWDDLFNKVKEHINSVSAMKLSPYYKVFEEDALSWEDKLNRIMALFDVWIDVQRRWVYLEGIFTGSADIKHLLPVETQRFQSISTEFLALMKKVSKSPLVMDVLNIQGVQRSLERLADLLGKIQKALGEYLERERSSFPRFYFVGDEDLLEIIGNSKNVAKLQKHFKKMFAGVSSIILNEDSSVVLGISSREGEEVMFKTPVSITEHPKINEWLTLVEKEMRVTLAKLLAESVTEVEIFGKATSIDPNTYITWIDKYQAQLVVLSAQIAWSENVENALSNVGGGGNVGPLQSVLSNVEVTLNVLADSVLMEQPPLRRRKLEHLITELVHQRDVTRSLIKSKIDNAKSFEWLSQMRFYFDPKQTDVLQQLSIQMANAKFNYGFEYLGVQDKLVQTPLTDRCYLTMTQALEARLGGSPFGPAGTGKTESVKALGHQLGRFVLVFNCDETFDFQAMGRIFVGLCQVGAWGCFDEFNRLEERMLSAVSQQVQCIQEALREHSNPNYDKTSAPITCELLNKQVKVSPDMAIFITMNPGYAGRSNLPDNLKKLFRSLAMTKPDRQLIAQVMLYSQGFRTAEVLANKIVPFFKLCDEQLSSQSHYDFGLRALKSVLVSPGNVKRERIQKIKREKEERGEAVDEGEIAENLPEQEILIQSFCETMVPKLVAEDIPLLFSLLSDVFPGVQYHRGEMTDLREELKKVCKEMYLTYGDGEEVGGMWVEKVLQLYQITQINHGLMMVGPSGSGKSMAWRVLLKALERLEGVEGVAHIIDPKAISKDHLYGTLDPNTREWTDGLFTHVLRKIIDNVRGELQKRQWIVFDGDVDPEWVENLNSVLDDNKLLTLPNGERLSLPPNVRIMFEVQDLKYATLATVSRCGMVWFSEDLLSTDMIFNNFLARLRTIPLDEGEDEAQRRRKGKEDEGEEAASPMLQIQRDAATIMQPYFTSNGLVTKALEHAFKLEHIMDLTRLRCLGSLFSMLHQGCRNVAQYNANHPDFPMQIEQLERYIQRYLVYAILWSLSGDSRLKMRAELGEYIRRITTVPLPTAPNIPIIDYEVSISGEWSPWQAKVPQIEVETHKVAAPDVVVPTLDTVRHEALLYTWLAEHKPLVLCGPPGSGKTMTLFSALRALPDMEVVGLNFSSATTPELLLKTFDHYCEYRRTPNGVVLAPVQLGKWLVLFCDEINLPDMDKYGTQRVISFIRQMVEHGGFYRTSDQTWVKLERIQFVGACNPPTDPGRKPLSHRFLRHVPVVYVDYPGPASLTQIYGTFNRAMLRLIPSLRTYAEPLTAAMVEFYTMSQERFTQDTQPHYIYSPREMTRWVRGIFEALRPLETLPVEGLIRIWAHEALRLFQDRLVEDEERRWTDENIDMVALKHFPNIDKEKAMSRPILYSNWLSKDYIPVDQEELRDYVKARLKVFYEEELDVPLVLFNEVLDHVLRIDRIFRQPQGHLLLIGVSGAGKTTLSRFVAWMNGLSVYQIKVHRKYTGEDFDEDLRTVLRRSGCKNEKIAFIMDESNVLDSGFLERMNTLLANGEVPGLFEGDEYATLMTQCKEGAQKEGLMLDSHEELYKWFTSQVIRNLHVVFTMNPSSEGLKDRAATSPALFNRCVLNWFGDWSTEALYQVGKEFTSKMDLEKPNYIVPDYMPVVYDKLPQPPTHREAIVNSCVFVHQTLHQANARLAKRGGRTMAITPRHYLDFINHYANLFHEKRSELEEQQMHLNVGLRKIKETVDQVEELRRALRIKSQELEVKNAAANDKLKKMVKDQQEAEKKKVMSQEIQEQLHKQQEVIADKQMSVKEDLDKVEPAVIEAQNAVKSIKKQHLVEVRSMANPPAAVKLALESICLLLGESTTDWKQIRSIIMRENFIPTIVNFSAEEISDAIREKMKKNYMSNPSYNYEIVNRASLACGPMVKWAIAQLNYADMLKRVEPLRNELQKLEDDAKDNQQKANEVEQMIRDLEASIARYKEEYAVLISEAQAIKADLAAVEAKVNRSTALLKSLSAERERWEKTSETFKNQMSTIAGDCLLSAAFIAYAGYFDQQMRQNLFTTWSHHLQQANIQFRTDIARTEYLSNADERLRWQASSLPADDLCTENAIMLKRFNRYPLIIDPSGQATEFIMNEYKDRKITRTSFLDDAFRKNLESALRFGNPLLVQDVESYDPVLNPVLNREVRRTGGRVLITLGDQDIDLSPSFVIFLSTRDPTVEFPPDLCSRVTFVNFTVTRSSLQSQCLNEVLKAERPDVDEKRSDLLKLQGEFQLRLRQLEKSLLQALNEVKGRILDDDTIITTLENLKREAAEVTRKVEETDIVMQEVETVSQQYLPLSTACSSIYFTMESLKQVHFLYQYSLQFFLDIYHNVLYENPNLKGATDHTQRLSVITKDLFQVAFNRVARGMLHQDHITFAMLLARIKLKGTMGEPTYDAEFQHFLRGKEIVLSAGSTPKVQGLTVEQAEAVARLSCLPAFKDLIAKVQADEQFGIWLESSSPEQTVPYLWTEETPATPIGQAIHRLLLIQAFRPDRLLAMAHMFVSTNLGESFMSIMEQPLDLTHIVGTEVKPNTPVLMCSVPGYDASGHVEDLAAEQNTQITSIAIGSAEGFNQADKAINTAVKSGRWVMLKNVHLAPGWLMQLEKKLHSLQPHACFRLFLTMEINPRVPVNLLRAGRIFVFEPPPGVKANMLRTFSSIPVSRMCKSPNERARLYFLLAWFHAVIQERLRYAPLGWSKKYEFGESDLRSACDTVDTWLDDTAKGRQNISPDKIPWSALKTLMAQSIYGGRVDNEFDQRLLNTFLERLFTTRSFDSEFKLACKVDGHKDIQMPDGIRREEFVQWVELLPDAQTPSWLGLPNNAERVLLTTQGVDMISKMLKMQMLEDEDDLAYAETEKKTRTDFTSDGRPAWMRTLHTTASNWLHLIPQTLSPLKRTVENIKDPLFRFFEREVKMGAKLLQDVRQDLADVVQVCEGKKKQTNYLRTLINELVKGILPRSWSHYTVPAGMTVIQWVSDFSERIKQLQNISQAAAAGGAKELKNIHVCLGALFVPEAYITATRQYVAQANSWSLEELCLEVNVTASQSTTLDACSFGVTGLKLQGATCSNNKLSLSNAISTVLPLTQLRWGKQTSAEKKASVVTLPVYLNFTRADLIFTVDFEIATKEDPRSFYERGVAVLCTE

| Compound | IC50 [µM] |
| --- | --- |
| NCCCOc1c(Br)cc(Br)cc1CC(N=O)C(=O)NCCc1ccc(Cl)cc1 (stereo unspecified) [3-[2-(3-aminopropoxy)-3,5-dibromophenyl]-N-[2-(4-chlorophenyl)ethyl]-2-hydroxyiminopropanamide hydrochloride] | > 50 |
| NCCCOc1ccc(CC(N=O)C(=O)NCCc2c[nH]c3ccccc23)cc1Br (stereo unspecified) [3-[4-(3-aminopropoxy)-3-bromophenyl]-2-hydroxyimino-N-[2-(1H-indol-3-yl)ethyl]propanamide hydrochloride] | > 50 |
| NCCCOc1ccc(CC(N=O)C(=O)NCCc2ccc(Cl)cc2)cc1Br (stereo unspecified) [3-[4-(3-aminopropoxy)-3-bromophenyl]-N-[2-(4-chlorophenyl)ethyl]-2-hydroxyiminopropanamide hydrochloride] | > 50 |

Results, then the compound that gave them:

| IC50 [µM] | Compound |
| --- | --- |
| > 50 | NCCCOc1c(Cl)cc(Cl)cc1CC(N=O)C(=O)NCCc1c[nH]c2ccccc12 (stereo unspecified) [3-[2-(3-aminopropoxy)-3,5-dichlorophenyl]-2-hydroxyimino-N-[2-(1H-indol-3-yl)ethyl]propanamide hydrochloride] |
| > 50 | NCCCOc1c(Br)cc(Br)cc1CC(N=O)C(=O)NCCc1c[nH]c2ccccc12 (stereo unspecified) [3-[2-(3-aminopropoxy)-3,5-dibromophenyl]-2-hydroxyimino-N-[2-(1H-indol-3-yl)ethyl]propanamide hydrochloride] |
| > 50 | CCCCCCCCCCCCCC(=O)NCCCOc1c(Br)cc(CC(N=O)C(=O)NCCc2cnc(N)[nH]2)cc1Br (stereo unspecified) [Lipopurealin A] |
